The subject of data set [1] is Canis familiaris. Put plainly: Minimum effective dose evaluated in mixed-breed or Beagle dogs after intravenous administration. Type of data set: functional. Conditions: Canis lupus familiaris, read-out: MED.
The nature of data set [2]: Therapeutic ratio in mixed-breed or Beagle dogs after intravenous administration of the compound. Type of data set: ADME, Canis lupus familiaris. Conditions: dog, in vivo, read-out: TR.
The test system of data set [3] is Canis familiaris. Put plainly: Antiarrhythmic activity was evaluated in mixed-breed or Beagle dogs after intravenous administration. In kind it is functional, Canis lupus familiaris, Heart.
Data set [4] has as its system Canis familiaris. Put plainly: Activity duration index was evaluated in mixed-breed or Beagle dogs after intravenous administration. Type of data set: functional, Canis lupus familiaris.

SMILES strings stand for the structures. A value given as a limit tells only on which side of the number the result lay.

Turning to `CC(C)N(CCC(CCN1CCN2CCCC2C1)(C(N)=O)c1ccccc1)C(C)C` (stereo not drawn), the minimal effective dose with Canis familiaris [1] stood at 10 mg/kg. Further, the selectivity ratio in data set [2] is greater than 5. This compound gave an AR in the data set on Canis familiaris [3] of 2.7.

As for `CC(C)N(CCC(CCN1C(C)CCCC1C)(C(N)=O)c1ccccc1F)C(C)C` (stereo not drawn), the minimal effective dose in the data set with Canis familiaris [1] turned out to be 3.3 mg/kg. The ADI with Canis familiaris [4] came out at 2.2. In addition, the selectivity ratio in data set [2] was 6.7. This compound also gave an AR in the data set on Canis familiaris [3] of 8.3.

Turning to `CC(C)N(CCC(CCN(C(C)C)C(C)C)(C(N)=O)c1c(Cl)cccc1Cl)C(C)C`, the minimal effective dose in the data set with Canis familiaris [1] worked out at 2.7 mg/kg. The ADI in the data set on Canis familiaris [4] worked out at 1.2. In addition, the selectivity ratio in data set [2] came out at 4.6. This compound also had an AR with Canis familiaris [3] of 6.9.

Turning to `CC(C)N(CCC(CCN1CCCCC1)(C(N)=O)c1cccc(Cl)c1)C(C)C` (stereo not drawn), the minimal effective dose with Canis familiaris [1] stood at 2.3 mg/kg. Further, the ADI with Canis familiaris [4] was 0.7. For the same compound, the selectivity ratio in data set [2] stood at 3. For the same compound, the AR with Canis familiaris [3] came out at 4.4.

As to `CC(C)N(CCC(CCN(C(C)C)C(C)C)(C(N)=O)c1ccc(Cl)c(Cl)c1)C(C)C`, the minimal effective dose with Canis familiaris [1] was found to be 2.5 mg/kg. This compound also yielded an ADI with Canis familiaris [4] of 0.63. Also, the selectivity ratio in data set [2] turned out to be 4.6. For the same compound, the AR with Canis familiaris [3] was 5.8.

For the compound `CC(C)N(CCC(CCN1CCCCC1)(C(N)=O)c1ccc(Cl)cc1)C(C)C` (stereo not drawn), the minimal effective dose with Canis familiaris [1] came out at 3.5 mg/kg. The compound also showed an ADI in the data set on Canis familiaris [4] of 0.51. The selectivity ratio in data set [2] amounted to 1. The same compound returned an AR in the data set on Canis familiaris [3] of 6.6.

In the case of `CC(C)N(CCC(CCN(C)C)(C(N)=O)c1ccc(C(C)(C)C)cc1)C(C)C` (stereo not drawn), the minimal effective dose in the data set on Canis familiaris [1] was determined as 5 mg/kg. Also, in the data set on Canis familiaris [4], the ADI was determined as 0.76. In addition, the selectivity ratio in data set [2] worked out at 1.3. The compound also registered an AR in the data set on Canis familiaris [3] of 4.9.

Turning to `CC(C)N(CCC(CCCN1CCCCC1)(C(N)=O)c1ccccc1Cl)C(C)C` (stereo not drawn), in the data set with Canis familiaris [1], the minimal effective dose turned out to be 3.5 mg/kg. Moreover, the ADI in the data set with Canis familiaris [4] is given as 1.55. Further, the selectivity ratio in data set [2] amounted to 5. Besides, the AR with Canis familiaris [3] is 4.6.

Take `CC(C)N(CCC(CCN1CCCCC1)(C(N)=O)c1ccc(F)cc1F)C(C)C` (stereo not drawn): in the data set with Canis familiaris [1], the minimal effective dose was 6 mg/kg. Further, the ADI with Canis familiaris [4] worked out at 0.42. For the same compound, the selectivity ratio in data set [2] was greater than 4. This compound came in with an AR with Canis familiaris [3] of 6.

For the compound `Cc1ccc(C(CCN(C(C)C)C(C)C)(CCN(C(C)C)C(C)C)C(N)=O)cc1`, the minimal effective dose in the data set with Canis familiaris [1] stood at 2 mg/kg. Also, the selectivity ratio in data set [2] was 1.9. Besides, in the data set with Canis familiaris [3], the AR is on record as 5.3.

`CC(C)N(CCC(CCn1cccc1)(C(N)=O)c1ccccc1F)C(C)C` (stereo not drawn): in the data set with Canis familiaris [1], the minimal effective dose amounted to 7.5 mg/kg. Besides, the ADI with Canis familiaris [4] stood at 0.59. In addition, the selectivity ratio in data set [2] was found to be 7.3. For the same compound, the AR in the data set on Canis familiaris [3] was 3.6.

Consider `Cc1ccccc1C(CCN(C(C)C)C(C)C)(CCN(C(C)C)C(C)C)C(N)=O`, for which the minimal effective dose in the data set with Canis familiaris [1] was 1.5 mg/kg. In addition, the ADI with Canis familiaris [4] was 2.57. The selectivity ratio in data set [2] was 6. This compound also gave an AR with Canis familiaris [3] of 6.6.

For the compound `CC(C)N(CCC(CCN1CC2CCC1CC2)(C(N)=O)c1ccccc1)C(C)C` (stereo not drawn), in the data set on Canis familiaris [1], the minimal effective dose came to 3.5 mg/kg. The ADI in the data set with Canis familiaris [4] was found to be 1.38. Moreover, the selectivity ratio in data set [2] turned out to be 4.6. Also, in the data set on Canis familiaris [3], the AR turned out to be 6.7.

Consider `CC(C)N(CCC(CCN(C(C)C)C(C)C)(C(N)=O)c1cccc(C(F)(F)F)c1)C(C)C`, for which, in the data set with Canis familiaris [1], the minimal effective dose came out at 3 mg/kg. Besides, the ADI in the data set with Canis familiaris [4] worked out at 1.5. Further, the selectivity ratio in data set [2] came to 2.4. This compound displayed an AR in the data set on Canis familiaris [3] of 6.

For `CC(C)N(CCC(CCCN1CC2CCC(CC2)C1)(C(N)=O)c1ccccc1Cl)C(C)C` (stereo not drawn), the minimal effective dose with Canis familiaris [1] is 7 mg/kg. Further, the ADI in the data set with Canis familiaris [4] is 0.3. The selectivity ratio in data set [2] was found to be 4. This compound returned an AR in the data set with Canis familiaris [3] of 6.3.

`CC(C)N(CCC(CCN(C)C)(C(N)=O)c1ccc(F)cc1)C(C)C` (stereo not drawn): the minimal effective dose with Canis familiaris [1] was 15 mg/kg. Also, in the data set with Canis familiaris [4], the ADI is on record as 0.21. In addition, the selectivity ratio in data set [2] amounted to 1.1. Further, the AR in the data set on Canis familiaris [3] worked out at 2.2.

Consider `CC(C)N(CCC(CCCN(C)C)(C(N)=O)c1ccccc1)C(C)C` (stereo not drawn), for which the minimal effective dose in the data set on Canis familiaris [1] came out at 20 mg/kg.

Values taken from ChEMBL document CHEMBL1121621, “Synthesis and antiarrhythmic activity of alpha, alpha-bis[(dialkylamino)alkyl]phenylacetamides” (J Med Chem, 1980).
